Measured values: BindingDB's records for doi:10.1016/j.bmcl.2018.02.046 (AstraZeneca, 2018)

Molecular target: Proprotein convertase subtilisin/kexin type 9 (Homo sapiens, UniProt Q8NBP7)
Assay: Inhibition of PCSK9 binding to LDLR in human HuH7 cells after 5 hrs by On-cell Western assay

Sequence of Proprotein convertase subtilisin/kexin type 9 (Q8NBP7 31-152 limits assumed): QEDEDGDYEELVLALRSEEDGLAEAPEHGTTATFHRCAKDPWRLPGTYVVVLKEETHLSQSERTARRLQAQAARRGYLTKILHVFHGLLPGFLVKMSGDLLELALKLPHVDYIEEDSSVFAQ
Sequence of Proprotein convertase subtilisin/kexin type 9 (Q8NBP7 153-692 limits assumed): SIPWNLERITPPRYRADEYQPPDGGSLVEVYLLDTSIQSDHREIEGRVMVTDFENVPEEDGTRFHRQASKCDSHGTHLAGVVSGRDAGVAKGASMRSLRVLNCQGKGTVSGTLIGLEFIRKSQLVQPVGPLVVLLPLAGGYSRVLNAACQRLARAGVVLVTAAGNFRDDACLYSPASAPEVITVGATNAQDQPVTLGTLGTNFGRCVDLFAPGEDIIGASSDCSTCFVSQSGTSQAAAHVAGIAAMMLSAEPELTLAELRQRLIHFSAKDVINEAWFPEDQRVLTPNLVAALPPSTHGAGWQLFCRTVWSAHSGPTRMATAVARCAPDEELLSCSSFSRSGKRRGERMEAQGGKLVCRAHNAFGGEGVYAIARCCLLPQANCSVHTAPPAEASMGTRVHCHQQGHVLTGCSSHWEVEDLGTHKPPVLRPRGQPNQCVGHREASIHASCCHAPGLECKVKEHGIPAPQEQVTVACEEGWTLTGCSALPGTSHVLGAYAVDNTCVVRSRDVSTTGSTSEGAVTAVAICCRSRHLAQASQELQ

In the case of H-LILPKHSDAD-OH, the IC50 is reported as 1600 nM.
